The values below come from patent EP1488698A1, “Compositions for descreasing intracellular inositol trisphosphate concentration and uses thereof” (priority 1995, dated 1997).

The subject of experiment [1] is primary chick cortical neurons. Description: Phosphoinositide hydrolysis assay (InsP3 production) in cultured primary cortical neurons. It is filed as cell-based. Conditions: for fold induction at 100 µM: Gallus gallus, Cortical neurone, 20 min, read-out: Ins-P-n. Here is the method: The neurons were seeded in 24-well plastic tissue culture plates that had been coated with L-polylysine.
Receptor-stimulated and basal unstimulated hydrolysis of phosphoinositides was measured by the following procedure. […] The cells were then washed twice with 1 ml Dulbecco's phosphate-buffered saline (PBS) and 0.5 ml of PBS containing 4.5 g/L glucose was added. Sphingosine, psychosine, lysosulphatide, or lysosphingomyelin, prepared as the hydrochloride salt dissolved in water, were then added to produce the desired extracellular concentration in specific wells, […] The cells were then washed twice with 1 ml PBS, and pre-incubated for 15 minutes at 37°C with 0.5 ml PBS containing 10 mM LiCl and the compound to be tested was added. […] The tubes were vortexed thoroughly, then centrifuged at 500 x g for 5 minutes to separate the aqueous and chloroform phases. For each sample, a 1.5-ml aliquot of the upper (aqueous) phase was applied to a small column containing BioRad AG1X8 resin (formate form). Free [^3H]inositol and [^3H]glycerophosphoinositol were washed through the column with 5 ml of a solution containing 5 mM sodium borate and 60 mM sodium formate. The total phosphorylated [^3H] inositol fraction was eluted from the column for radiometric scintillation spectrometry analysis with 3 ml 1.0 M ammonium formate/0.1 M formic acid.
In addition, a 0.5 ml aliquot of the lower (chloroform) phase of each sample was analyzed radiometrically by scintillation spectrometry in order to determine the quantity of lipid-bound [^3H]myo-inositol. Estimation of phosphoinositide hydrolysis by phospholipase C is based upon the quantity of [^3H]inositol phosphates produced, and is expressed as the percentage of the latter relative to total free and componential [^3H]inositol (dpm ammonium formate + dpm chloroform fractions).

Experiment [2] deals with cultured neurons. Description: Lysosphingolipid content of cultured neurons by NBDZF fluorescence tagging. It is filed as cell-based, chick. An excerpt: Agonist-binding to metabotropic receptors influences the levels of lysosphingolipid in neuronal membranes. However, there is no convenient methodology available for the measurement of lysosphingolipid content in cultured neurons. As a result, a sensitive method of fluorometric tracing has been devised and is described herein. The measurement of lysosphingolipid content in cultured neurons is based on the stable fluorescence-tagging procedure using 4-fluoro, 7-nitrobenzofuran (NBDZF) described by Nozowa et al J. Neutochem. 59:607-609, 1992). The procedure was applied to: resting neurons; neurons exposed to 100 µM metabotropic receptor agonist for 1 hour; resting neurons exogenously enriched in lysosphingolipids; and neurons exogenously enriched in lysosphingolipids and exposed to metabotropic receptor agonist for 1 hour. The neurons were scraped in batches of 10^7 (1 Petri dish, approximately 8 cm in diameter, is equivalent to 2 mg membrane protein) and subjected to anaylsis.
Total lipids were removed from the neuron samples by repeated extraction with chloroform:methanol (2:1, vol:vol). The lysosphingolipids were separated from total neuronal lipid in 90 ± 5 % recovery yield (n = 10) by the stepped chromatographic procedure of Van Veldhoven et al. (Anal. Biochem. 183:177-189, 1989). The recovered lysosphingolipids were stably tagged with NBDZF by the rapid procedure of Nozowa et al. (supra). The fluorescence tagged neuronal lysosphingolipids were separated in parallel with reference standards NBDZF-Sph, NBDZF-Psy, and NBDZF-Lsm on high performance silica gel thin layer chromatography plates with acetonitrile:H2O (10:0.5, vol:vol). The highly fluorescent, well separated bands were scraped from the plate. The fluorescence tagged lysosphingolipids are eluted from the scraped silica gel with methanol:1 N HCl (1:0.02, vol:vol). The fluorescence tagged lysosphingolipid eluates were quantitated against reference standards by fluorescence measurement in a Perkin-Elmer LS-5 Fluorescence Spectrometer.
Sphingolipid content of neurons exposed to sphingosine, lysocerebroside, and lysosphingomyelin was examined as follows. A Petri dish containing approximately 10^7 neurons was incubated with 5 µCi [^3H]myo-Ins in 3 ml DMEM overnight to prelabel the phosphoinositide InsP3 may contain. The neurons were washed with PBS and 3 ml of PBS containing 4.5 g/l glucose was added. Preparations of sphingosine, lysocerebroside, lysosphingomyelin (Sigma Chemical Co., St. Louis, MO) and combinations of each were prepared as the hydrochloride salt dissolved in PBS. The lysosphingolipids were added to the Petri dishes to produce a concentration ranging from 0 - 150 µM. The dishes were held at room temperature for 0.5, 1, or 2 hours, then washed with PBS and incubated with 5 Units of trypsin in glucose/PBS for […] at 37°C. Trypsinization removes non-specifically bound lysosphingolipids that may adhere to extracellular plasma membrane protein domains. Non-specific adherence between cationic micelles of lysosphingolipids and the neuronal glycocalyx is avoided by performing the experiments with lysosphingolipid concentrations below the critical micelle concentration. Neurons were analyzed for lysosphingolipid content as described above.

Experiment [3] concerns cortical neurons. Kind of experiment: Calcium ion signalling (fura 2) in intact cortical neurons. It is filed as cell-based, chick. Here is the method:
Metabotropic receptor function was examined in intact neurons by assaying lysosphingolipid modulation of calcium ion signalling. Approximately 1 X 10^6 cortical neurons were cultured on rectangular L-polylysine-coated coverslips and loaded with lysocerebroside or lysosphingomyelin to a level of 150 ± 20 pmoles per mg protein. The neurons were returned to complete Ham's high glucose medium/DMEM (1:1, vol:vol) and infiltrated with 5 µM fura 2/AM (Molecular Probes, Eugene, OR). Fura 2 is a calcium chelator whose fluorescence absorbance shifts to shorter wavelength upon calcium ion binding is measurable in intact cells. A change in intraneuronal calcium ion concentration was monitored as a change in the fluorescence spectrum.
The neurons were exposed to 10 µM glutamate agonist (for example, ibotenate) for 30 minutes at 37°C. The coverslips were then transferred to quartz cuvettes in medium containing 250 µM sulfinpyrazone to prevent fura 2/AM diffusion. Fluorescence ratios were recorded in a Perkin-Elmer LS-5 Fluorescence Spectrometer thermostatted at 37°C at excitation wavelengths of 340 and 380 nm, and emission measurement at 500 nm. Calcium ion signalling in agonist-stimulated neurons was 3.0 ± 0.2 arbitrary units for ibotenate-exposed neurons.

Marks after values point to notes of the source that are not given here.

For the molecule `N[C@@H](CC(=O)O)C(=O)O` [Aspartate, aspartate, reference compound], the fold induction at 100 µM in experiment [1] worked out at 2.7 ± 0.06.

With `N[C@@H](CCC(=O)O)C(=O)O` [Glutamate, glutamate, reference compound], in experiment [1], the fold induction at 100 µM amounted to 3.3 ± 0.05.

`NC(C(=O)O)c1cc(O)no1` (stereo not drawn) [Ibotenate, ibotenate, reference compound]: the Ins-P-n in experiment [1] is given as 3.00 ± 0.10^f. Further, in experiment [2], the “lysocerebroside content of neurons” value came out at 80 ± 5, the “lysosphingomyelin content of neurons” value came out at 52 ± 2 and the “sphingosine content of neurons” value is 85 ± 3. Moreover, the Calcium ion signalling in experiment [3] is recorded as 3.0 ± 0.2 arbitrary units.

In the case of `CN[C@@H]1C[C@H]2O[C@@](C)([C@@H]1OC)n1c3ccccc3c3c4c(c5c6ccccc6n2c5c31)C(=O)NC4` [staurosporine, reference compound], the “influence on the effects of sphingosine, lysocerebroside, or lysosphingomyelin on InsP3 production” value in experiment [1] (brain neurons responsive to excitatory amino acids, protein kinase C inhibitor) is on record as “does not influence”.

As for Lysosulphatide [reference compound], the “inhibitory effect on InsP3 signalling” value in experiment [1] (chick cortical neurons) was “without inhibitory effect”.
